One assay deals with K562. The assay can be described thus: Cell viability assay (XTT). Type of assay: cell-based. The settings on record: Homo sapiens, up to 72 hr. On the procedure:
(§1) A panel of BET-sensitive and insensitive cell lines were profiled for effect on cell viability using compound 3. Cells were cultured in the presence of inhibitors at various concentrations for up to 72 hr. For cell viability assays as previously described (Guo Y, et al. 2012. J Hematol Oncol 5:72; Chen Y, et al. 2016. Oncogene 35:2971-8), 0.08 mg/ml XTT (2,3-bis-(2-methoxy-4-nitro-5-sulfophenyl)-2H-tetrazolium-5-carboxanilide) and 8 μM phenazine methyl sulfate (PMS) were added to the cells at the end of the test compound or vehicle treatment duration, and absorbance at 450 nm was measured after 3 hr incubation at 37° C. Assays were performed in triplicates. IC50 values were estimated using a non-linear mixed effect model fitting a sigmoid curve to the experimental dose response data (Vis D J, et al. 2016. Pharmacogenomics 17(7):691-700).
Background: Formazan colour is commonly taken as a measure of viable cells.

The next assay has as its system OCI-LY18. The assay can be described thus: Cell viability assay (XTT). The assay is classed as cell-based. Conditions: Homo sapiens, up to 72 hr. On the procedure:
as §1

For another assay, the system named is HEL. The assay can be described thus: Cell viability assay (XTT). The assay is classed as cell-based. Conditions: Homo sapiens, up to 72 hr. How it is done:
as §1

For a further assay, the system named is THP-1. Kind of assay: Cell viability assay (XTT). The assay is classed as cell-based. Conditions: Homo sapiens; THP-1, XTT, up to 72 hr. On the procedure: as §1
The test system of the next assay is SET-2. Kind of assay: Cell viability assay (XTT). Type of assay: cell-based. Conditions: Homo sapiens; SET-2, XTT, up to 72 hr. On the procedure: as §1
A further assay has as its system U2973. The assay can be described thus: Cell viability assay (XTT). Type of assay: cell-based. Conditions: Homo sapiens, U-2973, up to 72 hr. How it is done:
as §1

In another assay the test system is MV-4-11. The assay can be described thus: Cell viability assay (XTT). Type of assay: cell-based. The settings on record: Homo sapiens, MV4-11; MV-4-11, XTT, up to 72 hr. On the procedure:
as §1

A further assay concerns Jurkat. Kind of assay: Cell viability assay (XTT). The assay is classed as cell-based. Conditions: Homo sapiens, up to 72 hr. On the procedure: as §1
The test system of a further assay is MEG-01. The assay can be described thus: Cell viability assay (XTT). The assay is classed as cell-based. The settings on record: Homo sapiens; MEG-01, XTT, up to 72 hr. How it is done: as §1
In the next assay the test system is Molt-4. The assay can be described thus: Cell viability assay (XTT). Type of assay: cell-based. Conditions: Homo sapiens; Molt-4, XTT, up to 72 hr. How it is done: as §1
The subject of a further assay is 22Rv1 cells. The assay can be described thus: 22Rv1 cell proliferation assay with wash-off or mock wash-off. Type of assay: cell-based, human. Conditions: Homo sapiens. On the procedure: A 22Rv1 cell proliferation assay was used to assess durability of test compound effects after transient exposure of test compound to cells. 22Rv1 cells were seeded at 3000 cells per well/100 μl in a 96-well plate and incubated with test compounds at specified dilutions for 2 hr at 37° C. and 5% CO2. Following the incubation, test compound was washed off and replacement culture medium without test compound was added. Wash-off was performed by three PBS washes. The cells were incubated for an additional 96 hr at 37° C. and 5% CO2. In parallel, a mock wash-off was performed with cells that were treated identically except that the replacement culture medium contained test compound. The plate was incubated for 4 hr at 37° C., 5% CO2 and fluorescence was measured using excitation and emission wavelengths of 535 and 590 nm, respectively. Cell viability data were plotted using GraphPad Prism (GraphPad Software, Inc., San Diego, Calif.). In addition, a nonlinear regression model with a sigmoidal dose response and variable slope within GraphPad Prism was used to calculate the IC50 value of individual test compounds.

The test system of the next assay is MV4-11 cells. Kind of assay: Cell viability assay after wash-off (FITC-annexin V / 7-AAD flow cytometry). The assay is classed as cell-based, human. Conditions: MV4-11, 0.5 or 2 μM for 2 or 4 hr, total 48 hr. On the procedure: MV4-11 cells were incubated with compound (at a concentration of 0.5 or 2 μM) or mivebresib (at a concentration of 0.5 or 2 μM) for 2 or 4 hr before wash-off with culture medium and re-plated in fresh culture medium for a total of 48 hr. Cells were stained with FITC-annexin V and 7-AAD before flow cytometric analysis using a Stratedigm flow cytometer. Viable cells are negative for FITC-annexin V and 7-AAD.
For orientation: A flow cytometer gives signals particle by particle.

Assay [1] relates to IEC-6 rat intestinal epithelial cell line. The assay can be described thus: IEC-6 cell viability, Protocol A (toxicity to non-cancerous cells). Type of assay: cell-based. The settings on record: IEC-6, 3000 cells per well, 96 hrs. On the procedure:
The effects of test compounds were also studied in the IEC-6 rat intestinal epithelial cell line to assess potential toxicity to non-cancerous cells. The cells were harvested during the logarithmic growth period and counted. In Protocol A, cells were seeded at a count of 3000 cells per well/100 μl in a 96-well plate. After seeding, cells were incubated at 37° C., 5% CO2 for 24 hr. Cells were treated with test compounds at 8 concentrations within a desired concentration range (e.g. 5 nM-10 μM) for generation of dose response curves by preparing serial dilutions of the test compound in DMSO which were further diluted with culture medium and then added to each well. The plate was further incubated for another 96 hrs in humidified incubator at 37° C. and 5% CO2. The assay was terminated by addition of resazurin (# R7017, Sigma). The plate was incubated for 4 hr at 37° C., 5% CO2 and fluorescence was measured using excitation and emission wavelengths of 535 and 590 nm, respectively. Cell viability data were plotted using GraphPad Prism (GraphPad Software, Inc., San Diego, Calif.). In addition, a nonlinear regression model with a sigmoidal dose response and variable slope within GraphPad Prism was used to calculate the IC50 value of individual test compounds. […]

For assay [2], the system named is MV-4-11 human acute myeloid leukemia cell line. The assay can be described thus: Second cell viability assay in MV-4-11 (Cell Titer-Glo). The settings on record: Homo sapiens; MV4-11, Cell Titer-Glo, 72 hrs; read-out: Cell Viability IC50 in MV4-11 cells. The assay is classed as cell-based. In outline:
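MV-4-11 cells seeded at 15000 per well, rested 1 h, then treated with 8 concentrations (e.g. 5 nM–10 µM) for 72 h at 37 °C, 5% CO2. Viability by Cell Titer-Glo luminescence; IC50 from sigmoidal variable-slope nonlinear regression.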
In general terms: Cellular ATP, detected with luciferase, serves as a proxy for viable cell number.

Where two headings read alike, the source gives them in different places.

As for `C=CS(=O)(=O)Nc1ccc(Oc2ccc(F)cc2F)c(-c2cc(NC)c(=O)n(C)c2)c1` [Compound 3, N-(4-(2,4-difluorophenoxy)-3-(1-methyl-5-(methylamino)-6-oxo-1,6-dihydropyridin-3-yl)phenyl)ethenesulfonamide], the IC50 (commonly the point on the concentration scale where inhibition reaches its midpoint) with K562 came out at 5000 nM; with OCI-LY18, 420 nM; in the assay on HEL, 400 nM; in the assay on THP-1, 250 nM; with SET-2 it was 90 nM; in the assay on U2973 it was 240 nM. Further, the IC50 in the assay with MV-4-11 came to 100 nM; in the assay on Jurkat, 6000 nM; in the assay on MEG-01, 310 nM; in the assay with Molt-4 it was 300 nM; in the assay with 22Rv1 cells (22Rv1, 2 hr exposure, three PBS washes, additional 96 hr without compound, read-out: Wash-off IC50) it was 96 nM; with 22Rv1 cells (22Rv1, 2 hr, replacement medium with test compound, additional 96 hr, read-out: Mock wash-off IC50), 342 nM. Moreover, the IC50 is 339 nM in [1] and 28 nM in [2]. Also, the “cell inhibition activity after transient exposure (viable cells after wash-off)” value in the assay on MV4-11 cells was “sustained cell inhibition activity”.

For the origin of these results see patent US11192900B2, “Substituted 1,6-dihydropyridinones and 1,2-dihydroisoquinolinones as bet inhibitors” (NUVATION BIO INC., priority 2018, dated 2021).
